# Results published in PubChem BioAssay AID1996.
# Settings: buffer; pH 7.4; 200.0 µM
row,SMILES,solubility kinetic [µg/mL]
1,O=C(NCCOc1ccccc1)C(=O)c1c[nH]c2ccccc12,0.9
2,COc1cc2nc(CN3CCN(S(=O)(=O)c4cc(C)ccc4C)CC3)[nH]c(=O)c2cc1OC,9.7
3,Cc1ccc(O)c(NC(=O)c2cc(-c3ccc(F)cc3)on2)c1,< 0.3
4,CN(C)/C=N/c1c(C#N)cnn1C,> 26.6
5,Cc1cc(C)c(NC(=O)COC(=O)C23CC4CC(CC(O)(C4)C2)C3)c(Cl)c1,> 58.8
6,Fc1ccc2[nH]c3c(N4CCc5ccccc5C4)ncnc3c2c1,1.2
7,Cn1cnc(S(=O)(=O)N2CCN(c3ccc(F)cc3)CC2)c1,> 48.7
8,O=C(NCc1cccc(Cl)c1)c1ccc2ccccc2n1,3.6
9,C=CCn1c(O)c(Cc2ccc(OCC)cc2)c(=O)[nH]c1=O,43.7
10,O=C(CSc1nncn1-c1ccccc1)NC1CCCC1,> 45.4
11,COC(=O)c1ccc(C2C(C#N)=C(N)Oc3cc(N)ccc32)cc1 (centres undefined),11.2
12,Fc1ccccc1CN1CCCC(NC2CCC2)C1 (centres undefined),36.9
13,CN1CCN(S(=O)(=O)c2ccc([N+](=O)[O-])cc2)CC1,> 42.8
14,Cc1c(C(=O)O)cc(C(C)(C)C)n1CCSCCO,38.8
15,O=C(NCc1ccc(F)cc1)Nc1ccccc1,9.3
16,Nc1cc(Cl)ccc1C(=O)OCC(=O)N1CCOCC1,> 44.8
17,CN(C)/C=N/c1nccc(-c2cccs2)n1,> 34.8
18,O=C(CN1CCN(c2ccccc2F)CC1)NCc1ccccc1,40.8
19,CC(=O)NC1CC2CCCC(C1)N2Cc1ccc(C)cc1 (centres undefined),> 43
20,Cc1ccccc1C(=O)O/N=C(\N)c1ccccc1,34.3

row,SMILES,solubility kinetic [µg/mL]
1,Cc1ccc(Nc2c(-c3ccccc3)nc3cnccn23)cc1,1.1
2,CCc1cccc2c(C(=O)C(NCCOC)c3ccccc3)c[nH]c12 (centres undefined),> 50.5
3,CCOC(=O)C1CCCN(S(=O)(=O)c2ccc(NC(C)=O)cc2)C1 (centres undefined),> 53.2
4,C/C(Nc1ccccc1C(F)(F)F)=C1/CCOC1=O,18.7
5,COC(CNc1ccc([N+](=O)[O-])c(NCC(OC)OC)c1C#N)OC,19
6,CC1CCCC(C)N1C(=O)COC(=O)c1ccc(Br)o1 (centres undefined),> 51.6
7,Cn1c(CNC(=O)c2ccccc2F)cc2ccccc21,10.1
8,O=C(CN1C(=O)NC2(CCOc3ccccc32)C1=O)c1cccs1 (centres undefined),> 51.4
9,COC(=O)c1ccc(S(=O)(=O)NCc2ccccn2)n1C,39.6
10,CN(C)/C=C/C(=O)c1ccc([N+](=O)[O-])c(CS(=O)(=O)c2ccccc2)c1,> 56.2
11,S=C(NCC1CCCO1)Nc1cccc(Cl)c1 (centres undefined),> 40.6
12,Cc1ccc(NC(=O)c2nc3nccc(C)n3n2)c(C)c1,> 42.2
13,CCc1ccc(N2CC(C(=O)NCCC3=CCCCC3)CC2=O)cc1 (centres undefined),6.8
14,COc1cc(/C=C/C(=O)N2CCc3ccccc3C2)cc(OC)c1OC,46.6
15,C=CCNC(=S)NCc1ccccc1,> 30.9
16,OCCN1CCN(c2cc(C(F)(F)F)nc3c(F)cccc23)CC1,48.5
17,O=S(=O)(c1ccc(N2CCCC2)nc1)N1CCCC1,36.4
18,CCCCN1C(=O)N(c2ccccc2Cl)C(C)(O)CC1(C)C (centres undefined),47.6
19,CCc1cc(Cl)c(OC)c(C(=O)NC[C@@H]2CCCN2CC)c1O.Cl,> 56.6
20,O=C(O)c1ccccc1Nc1ccnc(Cl)n1,> 37.4

row,SMILES,solubility kinetic [µg/mL]
1,COC(=O)c1c(S(=O)(=O)N2CCOCC2)c(C)n(C)c1C,> 47.5
2,CCOc1ccc(S(=O)(=O)NCC2CCCO2)c2ccccc12 (centres undefined),42.2
3,CCOC(=O)c1ccc(NS(=O)(=O)c2ccc3oc(=O)[nH]c3c2)cc1,> 54.4
4,Cc1ccc(Cn2ccccc2=N)cc1.Cl,> 35.2
5,Cc1ccc(C)c(OCC(O)CNC2CCCC2)c1.Cl (centres undefined),> 45
6,CC(=O)Nc1ccc(S(=O)(=O)NCCc2ccccn2)cc1,44
7,C[C@@H]1CN(Cc2nc(-c3cnccn3)no2)C[C@H](C)O1,30.8
8,S=C(NCCc1c[nH]c2ccccc12)NC1CCCCC1,2.8
9,CCS(=O)(=O)Nc1cccc(-c2cn3c(n2)SCC3)c1,> 46.4
10,COc1ccc(NC(=O)CSc2nnc(-c3cccnc3)n2C)cc1,> 53.3
11,O=C(NCCc1ccccc1)c1cccc(Br)c1,10
12,O=C(Nc1ccccc1Cl)Nc1cccnc1Cl,2.8
13,CN(Cc1ccccc1)C(NC(=O)c1ccco1)C(Cl)(Cl)Cl (centres undefined),28.2
14,CC(C)(C)c1csc(NC(=O)c2cccnc2Cl)n1,40.4
15,CN1N=C(C(=O)Nc2ccc3c(c2)CCC3)CCC1=O,> 40.7
16,C/C(Cn1ncc(N2CCOCC2)c(Cl)c1=O)=N\O,> 43
17,CC(=O)N1CCCC(C(=O)c2ccc(Oc3ccccc3)cc2)C1 (centres undefined),> 48.5
18,C[C@]12CS(=O)(=O)C[C@H]1SC(=S)N2c1ccccc1,> 44.9
19,CC(=O)c1ccc(N2CCN(c3ncccn3)CC2)c([N+](=O)[O-])c1,39.2
